Test results as given in US20160272617A1, “SUBSTITUTED PHENYLALANINE DERIVATIVES” (BAYER PHARMA AKTIENGESELLSCHAFT, priority 2013, published 2016).
Where a name gives a salt, the structure may show the parent alone.

Assays:
human factor XIa = molecular target: T1, human factor XIa (Homo sapiens, UniProt P03951); experiment: Measurement of FXIa inhibition (fluorogenic peptide substrate Boc-Glu(OBzl)-Ala-Arg-AMC); format: biochemical; conditions: factor XIa from Kordia, 15 min preincubation, 30 min at 22° C., fluorescence
T1 construct: purchased Kordia
How it was run: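 Released AMC fluorescence (360/460 nm) read after 30 min at 22 °C. The reaction was started with Boc-Glu(OBzl)-Ala-Arg-AMC (10 μM stock) after a 15 min preincubation of the enzyme (0.45 nM stock) with compound (final 50 μM to 0.00013 μM).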

human and animal plasma = experiment: Determination of anticoagulatory activity: activated partial thromboplastin time (aPTT) in plasma; conditions: concentration of test substance which brings about a 1.5-fold extension of the aPTT; plasma species not given
How it was run: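 Citrated plasma (1:9, 0.11 M citrate; 4000 g, 15 min) from human or animal blood incubated with test compound and cephalin/kaolin PTT reagent for 3 min at 37° C.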

T1 sequence (P03951 388-625 limits assumed): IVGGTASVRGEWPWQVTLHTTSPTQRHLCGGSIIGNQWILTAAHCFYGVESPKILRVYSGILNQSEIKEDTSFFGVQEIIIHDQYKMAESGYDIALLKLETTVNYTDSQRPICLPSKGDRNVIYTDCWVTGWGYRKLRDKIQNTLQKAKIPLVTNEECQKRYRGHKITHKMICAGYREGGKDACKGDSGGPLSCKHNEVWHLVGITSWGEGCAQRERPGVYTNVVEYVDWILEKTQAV
T1 sequence (P03951 19-387 partner limits assumed): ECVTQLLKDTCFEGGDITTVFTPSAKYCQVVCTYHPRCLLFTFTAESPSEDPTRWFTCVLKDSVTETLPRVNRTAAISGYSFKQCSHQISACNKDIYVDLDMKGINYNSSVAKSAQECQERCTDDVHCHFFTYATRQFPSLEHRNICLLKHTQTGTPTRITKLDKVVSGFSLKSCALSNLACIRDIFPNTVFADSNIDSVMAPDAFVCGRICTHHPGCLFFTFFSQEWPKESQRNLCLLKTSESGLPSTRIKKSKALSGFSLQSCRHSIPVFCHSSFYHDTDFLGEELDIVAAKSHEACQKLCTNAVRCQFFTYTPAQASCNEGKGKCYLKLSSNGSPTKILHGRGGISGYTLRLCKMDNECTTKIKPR

SMILES | IC50 (human factor XIa) [nM] | aPTT (human and animal plasma) [µmol/L]
Cc1cc(C(=O)NC2CCNC(C)C2)ccc1-c1ccc(C[C@H](NC(=O)[C@H]2CC[C@H](CN)CC2)C(=O)Nc2ccc3c(=O)[nH][nH]c3c2)cc1 (stereo partly drawn) [Example 31, 4′-{(2S)-2-({[trans-4-(Aminomethyl)cyclohexyl]carbonyl}amino)-3-oxo-3-[(3-oxo-2,3-dihydro-1H-indazol-6-yl)amino]propyl}-2-methyl-N-(2-methylpiperidin-4-yl)biphenyl-4-carboxamide hydrochloride] | 30 | 0.22
Cc1cc(C(=O)N[C@H]2CC[C@H](N(C)C)CC2)ccc1-c1ccc(C[C@H](NC(=O)[C@H]2CC[C@H](CN)CC2)C(=O)Nc2ccc3[nH]c(C(F)(F)C(F)(F)F)nc3c2)cc1 [Example 78, 4′-[(2S)-2-({[trans-4-(Aminomethyl)cyclohexyl]carbonyl}amino)-3-oxo-3-{[2-(pentafluoroethyl)-1H-benzimidazol-5-yl]amino}propyl]-N-[4-(dimethylamino)cyclohexyl]-2-methylbiphenyl-4-carboxamide hydrochloride] | 12 | 0.38
CCN(CC)CCNC(=O)c1ccc(-c2ccc(C[C@H](NC(=O)[C@H]3CC[C@H](CN)CC3)C(=O)Nc3ccc(-c4nn[nH]n4)cc3)cc2)c(Cl)c1 [Example 10, 4′-[(2S)-2-({[trans-4-(Aminomethyl)cyclohexyl]carbonyl}amino)-3-oxo-3-{[4-(2H-tetrazol-5-yl)phenyl]amino}propyl]-2-chloro-N-[2-(diethylamino)ethyl]biphenyl-4-carboxamide hydrochloride] | 4.4 | 0.13
COC(=O)C1CCC(NC(=O)c2ccc(-c3ccc(C[C@H](NC(=O)[C@H]4CC[C@H](CN)CC4)C(=O)Nc4ccc(-c5nnn[nH]5)cc4)cc3)c(C)c2)C(=O)N1 (stereo partly drawn) [Example 151, Methyl 5-[({4′-[(2S)-2-({[trans-4-(aminomethyl)cyclohexyl]carbonyl}amino)-3-oxo-3-{[4-(1H-tetrazol-5-yl)phenyl]amino}propyl]-2-methylbiphenyl-4-yl}carbonyl)amino]-6-oxopiperidine-2-carboxylate hydrochloride] | 0.97 | 0.1
Cc1cc(C(=O)N[C@H]2CC[C@H](O)CC2)ccc1-c1ccc(CC(NC(=O)[C@H]2CC[C@H](CN)CC2)C(=O)Nc2ccc(-c3nnc(C(F)(F)C(F)(F)C(=O)O)[nH]3)cc2)cc1 (mixture of isomers) [Example 103, 3-[5-(4-{[2-({[trans-4-(Aminomethyl)cyclohexyl]carbonyl}amino)-3-{4′-[(trans-4-hydroxycyclohexyl)carbamoyl]-2′-methylbiphenyl-4-yl}propanoyl]amino}phenyl)-4H-1,2,4-triazol-3-yl]-2,2,3,3-tetrafluoropropanoic acid hydrochloride (enantiomer mixture)] | 1.1 | 0.1
Cc1cc(C(=O)N[C@H]2CC[C@H](O)CC2)ccc1-c1ccc(C[C@H](NC(=O)[C@H]2CC[C@H](CN)CC2)C(=O)Nc2ccc(-c3nn[nH]n3)cc2)cc1 [Example 33, 4′-[(2S)-2-({[trans-4-(Aminomethyl)cyclohexyl]carbonyl}amino)-3-oxo-3-{[4-(2H-tetrazol-5-yl)phenyl]amino}propyl]-N-(trans-4-hydroxycyclohexyl)-2-methylbiphenyl-4-carboxamide hydrochloride] | 0.78 | 0.11
NC[C@H]1CC[C@H](C(=O)N[C@@H](Cc2ccc(-c3ccc(C(=O)NC4CCNCC4)c(Cl)c3)cc2)C(=O)Nc2ccc(-c3nn[nH]n3)cc2)CC1 [Example 122, 4′-[(2S)-2-({[trans-4-(Aminomethyl)cyclohexyl]carbonyl}amino)-3-oxo-3-{[4-(2H-tetrazol-5-yl)phenyl]amino}propyl]-3-chloro-N-(piperidin-4-yl)biphenyl-4-carboxamide hydrochloride] | 5.2 | 0.16
Cc1cc(C(=O)NC2CCNCC2)ccc1-c1ccc(C[C@H](NC(=O)[C@H]2CC[C@H](CN)CC2)C(=O)Nc2ccc(-c3nnc(Cl)[nH]3)cc2)cc1 [Example 49, 4′-[(2S)-2-({[trans-4-(Aminomethyl)cyclohexyl]carbonyl}amino)-3-{[4-(3-chloro-4H-1,2,4-triazol-5-yl)phenyl]amino}-3-oxopropyl]-2-methyl-N-(piperidin-4-yl)biphenyl-4-carboxamide hydrochloride] | 2.1 | 0.08
Cc1cc(C(=O)NC2CCC(N(C)C)CC2)ccc1-c1ccc(C[C@H](NC(=O)[C@H]2CC[C@H](CN)CC2)C(=O)Nc2ccc3[nH]c(C(F)(F)F)nc3c2)cc1 (stereo partly drawn) [Example 77, 4′-[(2S)-2-({[trans-4-(Aminomethyl)cyclohexyl]carbonyl}amino)-3-oxo-3-{[2-(trifluoromethyl)-1H-benzimidazol-5-yl]amino}propyl]-N-[4-(dimethylamino)cyclohexyl]-2-methylbiphenyl-4-carboxamide hydrochloride] | 8.4 | 0.22
CNC1CCC(NC(=O)c2ccc(-c3ccc(C[C@H](NC(=O)[C@H]4CC[C@H](CN)CC4)C(=O)Nc4ccc(-c5nnn[nH]5)cc4)cc3)c(C)c2)CC1 (stereo partly drawn) [Example 147, 4′-[(2S)-2-({[trans-4-(Aminomethyl)cyclohexyl]carbonyl}amino)-3-oxo-3-{[4-(1H-tetrazol-5-yl)phenyl]amino}propyl]-2-methyl-N-[4-(methylamino)cyclohexyl]biphenyl-4-carboxamide hydrochloride] | 1.7 | 0.01
NC[C@H]1CC[C@H](C(=O)N[C@@H](Cc2ccc(-c3ccc(C(=O)N[C@H]4CCNC4)cc3Cl)cc2)C(=O)Nc2ccc(-c3nn[nH]n3)cc2)CC1 [Example 13, 4′-[(2S)-2-({[trans-4-(Aminomethyl)cyclohexyl]carbonyl}amino)-3-oxo-3-{[4-(2H-tetrazol-5-yl)phenyl]amino}propyl]-2-chloro-N-[(3S)-pyrrolidin-3-yl]biphenyl-4-carboxamide hydrochloride] | 4.2 | 0.44
Cc1cc(C(=O)NC2C3CNCC32)ccc1-c1ccc(C[C@H](NC(=O)C2CCC(CN)CC2)C(=O)Nc2ccc(-c3nn[nH]n3)cc2)cc1 (stereo partly drawn) [Example 43, 4′-[(2S)-2-({[trans-4-(Aminomethyl)cyclohexyl]carbonyl}amino)-3-oxo-3-{[4-(2H-tetrazol-5-yl)phenyl]amino}propyl]-N-(3-azabicyclo[3.1.0]hex-6-yl)-2-methylbiphenyl-4-carboxamide hydrochloride] | 3.3 | 0.06
Cc1cc(C(=O)NCCO)ccc1-c1ccc(C[C@H](NC(=O)[C@H]2CC[C@H](CN)CC2)C(=O)Nc2ccc3cn[nH]c3c2)cc1 [Example 17, 4′-[(2S)-2-({[trans-4-(Aminomethyl)cyclohexyl]carbonyl}amino)-3-(1H-indazol-6-ylamino)-3-oxopropyl]-N-(2-hydroxyethyl)-2-methylbiphenyl-4-carboxamide hydrochloride] | 6.1 | 0.35
CCN(CC)CCCNC(=O)c1ccc(-c2ccc(C[C@H](NC(=O)[C@H]3CC[C@H](CN)CC3)C(=O)Nc3ccc4c(=O)[nH][nH]c4c3)cc2)c(C)c1 [Example 24, 4′-{(2S)-2-({[trans-4-(Aminomethyl)cyclohexyl]carbonyl}amino)-3-oxo-3-[(3-oxo-2,3-dihydro-1H-indazol-6-yl)amino]propyl}-N-[3-(diethylamino)propyl]-2-methylbiphenyl-4-carboxamide hydrochloride] | 18 | 0.31
